# Reference: PubChem BioAssay AID1918954 (Molecular Pharmacology Branch, DTP, NCI, 2023)
# Tested on: MDA-MB-468 complex spheroids with HUVEC/MSC, viability
# Experiment: Anticancer human tumor MDA-MB-468 cell line growth inhibition;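 note: spheroids exposed to agents for seven days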;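 for viability, T/C: 100% = DMSO vehicle control viability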
# Details: for IC50: curve of first compound; for viability, T/C: stronger effect = lower value
# In short: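 Multicellular complex spheroids of tumor cells with human endothelial cells (HUVEC) and mesenchymal stem cells; the LSD1 inhibitor iadademstat was combined with standard-of-care or investigational agents. Top concentration at or near clinical Cmax, half-log dilutions; final DMSO ≤0.25%.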
smiles,measurement,setting,value
CC1COCCN1c1cc(C2(S(C)(=N)=O)CC2)nc(-c2ccnc3[nH]ccc23)n1 (stereo not given) + NC1CCC(NC2CC2c2ccccc2)CC1,IC50,second compound 0.1 µM,330 nM
same,IC50,second compound 0.316 µM,450 nM
same,IC50,second compound 1 µM,326 nM
same,IC50,second compound 3.16 µM,394 nM
same,IC50,second compound 10 µM,221 nM
same,"viability, T/C","second compound 0.1 µM, first compound 0.0316 µM",103%
same,"viability, T/C","second compound 0.1 µM, first compound 0.1 µM",73.1%
same,"viability, T/C","second compound 0.1 µM, first compound 0.316 µM",49.5%
same,"viability, T/C","second compound 0.1 µM, first compound 1 µM",34.9%
same,"viability, T/C","second compound 0.1 µM, first compound 3.16 µM",21.3%
same,"viability, T/C","second compound 0.1 µM, first compound 10 µM",10.2%
same,"viability, T/C","second compound 0.316 µM, first compound 0.0316 µM",76.9%
same,"viability, T/C","second compound 0.316 µM, first compound 0.1 µM",72.2%
same,"viability, T/C","second compound 0.316 µM, first compound 0.316 µM",55.8%
same,"viability, T/C","second compound 0.316 µM, first compound 1 µM",35.1%
same,"viability, T/C","second compound 0.316 µM, first compound 3.16 µM",21.2%
same,"viability, T/C","second compound 0.316 µM, first compound 10 µM",10.6%
same,"viability, T/C","second compound 1 µM, first compound 0.0316 µM",74.1%
same,"viability, T/C","second compound 1 µM, first compound 0.1 µM",71%
same,"viability, T/C","second compound 1 µM, first compound 0.316 µM",45.4%
same,"viability, T/C","second compound 1 µM, first compound 1 µM",34.4%
same,"viability, T/C","second compound 1 µM, first compound 3.16 µM",25.8%
same,"viability, T/C","second compound 1 µM, first compound 10 µM",11.3%
same,"viability, T/C","second compound 3.16 µM, first compound 0.0316 µM",75.5%
same,"viability, T/C","second compound 3.16 µM, first compound 0.1 µM",74.6%
same,"viability, T/C","second compound 3.16 µM, first compound 0.316 µM",48.9%
same,"viability, T/C","second compound 3.16 µM, first compound 1 µM",36.7%
same,"viability, T/C","second compound 3.16 µM, first compound 3.16 µM",21.2%
same,"viability, T/C","second compound 3.16 µM, first compound 10 µM",12.4%
same,"viability, T/C","second compound 10 µM, first compound 0.0316 µM",63.9%
same,"viability, T/C","second compound 10 µM, first compound 0.1 µM",54.7%
same,"viability, T/C","second compound 10 µM, first compound 0.316 µM",48.2%
same,"viability, T/C","second compound 10 µM, first compound 1 µM",35.2%
same,"viability, T/C","second compound 10 µM, first compound 3.16 µM",21.1%
same,"viability, T/C","second compound 10 µM, first compound 10 µM",8.95%
CCN(c1cc(-c2ccc(CN3CCOCC3)cc2)cc(C(=O)NCc2c(C)cc(C)[nH]c2=O)c1C)C1CCOCC1 + NC1CCC(NC2CC2c2ccccc2)CC1,IC50,second compound 0.1 µM,> 3000 nM
same,IC50,second compound 0.316 µM,> 3000 nM
same,IC50,second compound 1 µM,> 3000 nM
same,IC50,second compound 3.16 µM,> 3000 nM
same,IC50,second compound 10 µM,> 3000 nM
same,"viability, T/C","second compound 0.1 µM, first compound 0.00949 µM",107%
same,"viability, T/C","second compound 0.1 µM, first compound 0.03 µM",96%
same,"viability, T/C","second compound 0.1 µM, first compound 0.0949 µM",100%
same,"viability, T/C","second compound 0.1 µM, first compound 0.3 µM",88.1%
same,"viability, T/C","second compound 0.1 µM, first compound 0.949 µM",85.5%
same,"viability, T/C","second compound 0.1 µM, first compound 3 µM",83%
same,"viability, T/C","second compound 0.316 µM, first compound 0.00949 µM",99.7%
same,"viability, T/C","second compound 0.316 µM, first compound 0.03 µM",102%
same,"viability, T/C","second compound 0.316 µM, first compound 0.0949 µM",96.7%
same,"viability, T/C","second compound 0.316 µM, first compound 0.3 µM",102%
same,"viability, T/C","second compound 0.316 µM, first compound 0.949 µM",88.6%
same,"viability, T/C","second compound 0.316 µM, first compound 3 µM",91.9%
same,"viability, T/C","second compound 1 µM, first compound 0.00949 µM",87%
same,"viability, T/C","second compound 1 µM, first compound 0.03 µM",92.3%
same,"viability, T/C","second compound 1 µM, first compound 0.0949 µM",95.7%
same,"viability, T/C","second compound 1 µM, first compound 0.3 µM",87.4%
same,"viability, T/C","second compound 1 µM, first compound 0.949 µM",86%
same,"viability, T/C","second compound 1 µM, first compound 3 µM",74.9%
same,"viability, T/C","second compound 3.16 µM, first compound 0.00949 µM",86.3%
same,"viability, T/C","second compound 3.16 µM, first compound 0.03 µM",76.8%
same,"viability, T/C","second compound 3.16 µM, first compound 0.0949 µM",97.8%
same,"viability, T/C","second compound 3.16 µM, first compound 0.3 µM",99.9%
same,"viability, T/C","second compound 3.16 µM, first compound 0.949 µM",77.4%
same,"viability, T/C","second compound 3.16 µM, first compound 3 µM",88.5%
same,"viability, T/C","second compound 10 µM, first compound 0.00949 µM",67.2%
same,"viability, T/C","second compound 10 µM, first compound 0.03 µM",72.2%
same,"viability, T/C","second compound 10 µM, first compound 0.0949 µM",66.8%
same,"viability, T/C","second compound 10 µM, first compound 0.3 µM",74.5%
same,"viability, T/C","second compound 10 µM, first compound 0.949 µM",75.8%
same,"viability, T/C","second compound 10 µM, first compound 3 µM",63.4%
